Test results from ChEMBL document CHEMBL1201862, “PubChem BioAssay data set” (2004).
Active and inactive are the calls of the source.

Columns and labels:
Cytochrome P450 3A4 [1] = biological target: T1, Cytochrome P450 3A4 (Homo sapiens, UniProt P08684);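 also: CYP3A4 tested as one member of a cytochrome P450 panel screen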
Cytochrome P450 1A2 = biological target: T2, Cytochrome P450 1A2 (Homo sapiens, UniProt P05177);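 also: PubChem cytochrome P450 panel assay, CYP1A2 panel member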
T2 sequence (P05177 whole entry): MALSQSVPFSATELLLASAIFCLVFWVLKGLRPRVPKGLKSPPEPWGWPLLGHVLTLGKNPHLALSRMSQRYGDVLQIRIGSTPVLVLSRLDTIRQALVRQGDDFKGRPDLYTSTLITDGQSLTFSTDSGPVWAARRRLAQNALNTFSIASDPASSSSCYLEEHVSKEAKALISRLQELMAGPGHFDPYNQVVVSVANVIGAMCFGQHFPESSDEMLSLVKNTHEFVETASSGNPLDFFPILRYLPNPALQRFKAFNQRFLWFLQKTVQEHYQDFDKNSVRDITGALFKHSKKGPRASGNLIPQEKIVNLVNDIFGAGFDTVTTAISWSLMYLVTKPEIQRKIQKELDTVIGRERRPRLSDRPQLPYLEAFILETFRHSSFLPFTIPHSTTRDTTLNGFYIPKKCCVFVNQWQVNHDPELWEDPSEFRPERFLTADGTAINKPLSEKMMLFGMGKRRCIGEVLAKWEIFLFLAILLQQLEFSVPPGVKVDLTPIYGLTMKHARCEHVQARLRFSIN

Cytochrome P450 2C9 [2] = biological target: T3, Cytochrome P450 2C9 (Homo sapiens, UniProt P11712)
Cytochrome P450 2C19 = Cytochrome P450 2C19 (Homo sapiens, UniProt P33261); assay: Cytochrome panel assay with activity outcomes. Panel member name: p450-cyp2c19 Compounds with AC50 equal or less than 10 uM are considered active; type: functional; details: read-out: AC50
Leucine aminopeptidase = biological target: T4, Leucine aminopeptidase (Plasmodium falciparum 3D7, UniProt Q8IL11); assay: P. falciparum M17LAP inhibitors, primary screen, biochemical, fluorogenic H-Leu-NHMec substrate, 1536-well (AID 1619); type: functional
T4 sequence (Q8IL11 whole entry): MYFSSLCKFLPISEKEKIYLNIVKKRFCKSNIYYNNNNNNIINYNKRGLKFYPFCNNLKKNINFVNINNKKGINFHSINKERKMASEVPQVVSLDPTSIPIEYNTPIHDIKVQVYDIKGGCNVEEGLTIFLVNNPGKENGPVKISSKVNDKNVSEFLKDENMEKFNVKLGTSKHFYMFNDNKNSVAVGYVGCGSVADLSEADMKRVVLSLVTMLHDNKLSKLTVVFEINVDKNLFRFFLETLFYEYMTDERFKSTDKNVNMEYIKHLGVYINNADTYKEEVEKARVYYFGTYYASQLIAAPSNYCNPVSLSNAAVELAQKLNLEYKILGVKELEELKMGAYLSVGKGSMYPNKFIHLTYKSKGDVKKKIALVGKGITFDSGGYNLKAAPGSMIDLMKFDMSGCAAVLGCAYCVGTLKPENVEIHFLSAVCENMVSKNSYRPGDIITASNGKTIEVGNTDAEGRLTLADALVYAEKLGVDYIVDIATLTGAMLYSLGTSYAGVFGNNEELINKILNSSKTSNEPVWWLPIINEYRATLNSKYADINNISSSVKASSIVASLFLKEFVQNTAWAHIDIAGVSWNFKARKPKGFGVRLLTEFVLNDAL

Cytochrome P450 3A4 [3] = biological target: T1, Cytochrome P450 3A4; remark: listed apart in the source
[4] = Luminescence Cell-Based Dose Confirmation HTS to Identify Inhibitors of Platelet Dense Granule Release. [Related pubchem assays: 1663 (Primary HTS), 1678 (Summary of Project)]; type: functional
[5] = biological target: Luciferin 4-monooxygenase (Photinus pyralis, UniProt P08659); assay: inhibition of purified Photinus pyralis luciferase – biochemical, luminescence, dose response (AID 1891)
Cytochrome P450 2D6 = Cytochrome P450 2D6 (Homo sapiens, UniProt P10635);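 also: CYP2D6 member of a cytochrome P450 panel assay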
Cytochrome P450 2C9 [6] = biological target: T3, Cytochrome P450 2C9; remark: listed apart in the source
H4 = assay: Luminescence Cell-Based Dose Response HTS to Identify Activators of 5'UTR Stem-Loop Driven Prion Protein mRNA Translation in H4 Neuroglioblastoma Cells. [Related pubchem assays: 1829 (Project Summary), 1814 (Primary HTS)]; type: functional; details: Homo sapiens
[7] = Luminescence Cell-Based Dose Confirmation HTS to Identify Activators of 5'UTR Stem-Loop Driven Alpha-Synuclein mRNA Translation in H4 Neuroglioblastoma Cells. [Related pubchem assays: 1829 (Project Summary), 1814 (Primary HTS)]; type: functional
[8] = Luminescence Cell-Based Dose Response HTS to Identify Activators of Luciferase Translation or Activity in H4 […] Cells. [Related pubchem assays: 1829 (Project Summary), 1814 (Primary HTS)]; type: functional
[9] = viability of PTEN-deleted HCT116 cells – cell-based, HCT116 PTEN knockout, dose response (AID 1047); type: functional;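 also: HCT116 colon tumor cells with PTEN knocked out; cells exposed to compound for 60 hours before readout; potency for loss of cell viability measured by luminescence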
[10] = viability of HCT116 lacking mutant beta-catenin – cell-based, human colon tumor, dose response (AID 1045); type: functional;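 also: HCT116 colon tumor cells with beta catenin knocked out; cells exposed to compound for 60 hours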
[11] = biological target: T5, Polyadenylate-binding protein 1 (Homo sapiens, UniProt P11940); assay: MLLE domain peptide-binding blockers, IC50 – biochemical, fluorescence polarization, FITC-PAM2 peptide, dose response (AID 602259); type: functional; details: read-out: IC50_Mean
[12] = biological target: T6, RNA-binding protein pos-1 (Caenorhabditis elegans, UniProt G5EF15); assay: disruptors of C. elegans POS-1 RNA interaction – biochemical, fluorescence polarization, dose response (AID 1964);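 also: purified POS-1 fused to maltose binding protein made in E. coli; potency of compounds blocking POS-1 binding to fluorescent RNA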
T6 sequence (G5EF15 whole entry): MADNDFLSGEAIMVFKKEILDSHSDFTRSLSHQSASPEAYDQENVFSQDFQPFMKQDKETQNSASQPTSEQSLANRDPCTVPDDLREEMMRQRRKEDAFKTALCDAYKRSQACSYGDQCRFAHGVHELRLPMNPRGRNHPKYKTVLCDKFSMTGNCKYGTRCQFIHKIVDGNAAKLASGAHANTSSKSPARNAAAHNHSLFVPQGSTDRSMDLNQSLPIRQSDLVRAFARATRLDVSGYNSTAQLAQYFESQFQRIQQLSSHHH

[13] = biological target: T7, Zinc finger protein mex-5 (Caenorhabditis elegans, UniProt Q9XUB2); assay: potency of MEX-5 RNA-binding blockers – biochemical, C. elegans, fluorescence polarization, dose response (AID 1960)
T7 sequence (Q9XUB2 whole entry): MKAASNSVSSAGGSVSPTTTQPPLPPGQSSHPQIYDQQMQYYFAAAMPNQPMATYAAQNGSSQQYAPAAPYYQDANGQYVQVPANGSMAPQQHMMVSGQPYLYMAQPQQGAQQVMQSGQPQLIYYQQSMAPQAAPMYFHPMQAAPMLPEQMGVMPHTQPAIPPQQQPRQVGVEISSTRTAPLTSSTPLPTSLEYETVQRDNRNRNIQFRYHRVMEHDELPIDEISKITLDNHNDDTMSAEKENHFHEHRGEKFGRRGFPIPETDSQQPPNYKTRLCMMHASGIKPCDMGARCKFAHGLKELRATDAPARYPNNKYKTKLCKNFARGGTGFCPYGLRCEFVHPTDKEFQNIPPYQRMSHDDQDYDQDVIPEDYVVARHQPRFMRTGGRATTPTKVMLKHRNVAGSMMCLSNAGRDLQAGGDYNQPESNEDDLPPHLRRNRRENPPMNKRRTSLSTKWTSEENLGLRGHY

[14] = biological target: T5, Polyadenylate-binding protein 1; assay: MLLE binding blockers, Cy5 peptide tracer – biochemical, fluorescence polarization, Cy5-PAM2 peptide, secondary, miRNA deadenylation inhibitor project, dose response (AID 602260); type: functional; details: read-out: IC50_Mean

T3 sequence (P11712 whole entry): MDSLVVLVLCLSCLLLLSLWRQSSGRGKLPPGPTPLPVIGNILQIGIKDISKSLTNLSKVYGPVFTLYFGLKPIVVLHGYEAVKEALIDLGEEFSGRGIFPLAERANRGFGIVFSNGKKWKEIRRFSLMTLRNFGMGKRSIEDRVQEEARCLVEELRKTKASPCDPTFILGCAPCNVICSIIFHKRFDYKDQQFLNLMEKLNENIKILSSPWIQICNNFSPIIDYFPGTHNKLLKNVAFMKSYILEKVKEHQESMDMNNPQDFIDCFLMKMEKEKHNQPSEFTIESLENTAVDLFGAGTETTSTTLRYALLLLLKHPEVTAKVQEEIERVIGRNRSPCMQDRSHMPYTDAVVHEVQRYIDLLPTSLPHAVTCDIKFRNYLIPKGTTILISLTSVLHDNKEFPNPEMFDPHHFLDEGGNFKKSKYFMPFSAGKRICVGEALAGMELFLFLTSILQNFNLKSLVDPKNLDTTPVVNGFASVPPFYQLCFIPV
T1 sequence (P08684 whole entry): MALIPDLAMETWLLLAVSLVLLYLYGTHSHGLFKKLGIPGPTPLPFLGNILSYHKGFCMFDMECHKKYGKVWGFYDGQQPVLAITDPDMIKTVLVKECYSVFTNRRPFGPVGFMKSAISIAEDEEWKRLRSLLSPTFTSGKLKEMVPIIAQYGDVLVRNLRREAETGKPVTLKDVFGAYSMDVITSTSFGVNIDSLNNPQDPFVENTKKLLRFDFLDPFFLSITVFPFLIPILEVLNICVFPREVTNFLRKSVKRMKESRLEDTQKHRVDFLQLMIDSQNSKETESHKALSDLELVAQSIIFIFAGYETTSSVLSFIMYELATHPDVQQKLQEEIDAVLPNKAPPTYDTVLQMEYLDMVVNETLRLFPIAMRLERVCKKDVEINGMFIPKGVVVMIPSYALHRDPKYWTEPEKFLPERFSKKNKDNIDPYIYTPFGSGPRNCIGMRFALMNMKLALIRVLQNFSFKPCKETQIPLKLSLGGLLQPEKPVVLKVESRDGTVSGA
Sequence of Luciferin 4-monooxygenase (P08659 whole entry): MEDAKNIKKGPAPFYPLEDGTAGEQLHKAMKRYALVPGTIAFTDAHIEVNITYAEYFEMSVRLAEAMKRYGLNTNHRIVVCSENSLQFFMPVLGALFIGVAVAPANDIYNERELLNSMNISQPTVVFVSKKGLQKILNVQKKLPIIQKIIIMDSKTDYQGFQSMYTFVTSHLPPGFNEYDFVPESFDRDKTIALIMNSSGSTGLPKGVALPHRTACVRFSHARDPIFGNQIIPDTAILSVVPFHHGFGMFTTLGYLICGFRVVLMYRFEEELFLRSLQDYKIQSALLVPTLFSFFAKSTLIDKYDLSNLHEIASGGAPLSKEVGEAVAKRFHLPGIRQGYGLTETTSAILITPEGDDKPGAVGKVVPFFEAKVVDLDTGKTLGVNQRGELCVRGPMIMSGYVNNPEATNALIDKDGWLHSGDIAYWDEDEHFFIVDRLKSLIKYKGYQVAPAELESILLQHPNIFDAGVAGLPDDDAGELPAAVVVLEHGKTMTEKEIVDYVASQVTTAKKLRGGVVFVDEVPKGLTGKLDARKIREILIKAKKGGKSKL
Sequence of Cytochrome P450 2D6 (P10635 whole entry): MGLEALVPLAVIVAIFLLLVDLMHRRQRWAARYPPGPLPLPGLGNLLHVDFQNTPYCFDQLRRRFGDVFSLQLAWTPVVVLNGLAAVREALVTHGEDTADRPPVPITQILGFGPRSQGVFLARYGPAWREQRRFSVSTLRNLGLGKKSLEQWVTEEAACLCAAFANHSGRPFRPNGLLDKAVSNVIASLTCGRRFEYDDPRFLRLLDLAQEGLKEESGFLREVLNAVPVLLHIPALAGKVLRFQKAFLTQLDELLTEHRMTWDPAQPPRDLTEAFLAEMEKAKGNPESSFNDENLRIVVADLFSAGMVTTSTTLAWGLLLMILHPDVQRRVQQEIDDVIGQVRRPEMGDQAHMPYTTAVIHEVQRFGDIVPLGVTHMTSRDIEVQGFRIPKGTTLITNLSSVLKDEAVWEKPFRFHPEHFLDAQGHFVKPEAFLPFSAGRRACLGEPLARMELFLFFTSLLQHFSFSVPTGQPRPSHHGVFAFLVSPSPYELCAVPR
Sequence of Cytochrome P450 2C19 (P33261 whole entry): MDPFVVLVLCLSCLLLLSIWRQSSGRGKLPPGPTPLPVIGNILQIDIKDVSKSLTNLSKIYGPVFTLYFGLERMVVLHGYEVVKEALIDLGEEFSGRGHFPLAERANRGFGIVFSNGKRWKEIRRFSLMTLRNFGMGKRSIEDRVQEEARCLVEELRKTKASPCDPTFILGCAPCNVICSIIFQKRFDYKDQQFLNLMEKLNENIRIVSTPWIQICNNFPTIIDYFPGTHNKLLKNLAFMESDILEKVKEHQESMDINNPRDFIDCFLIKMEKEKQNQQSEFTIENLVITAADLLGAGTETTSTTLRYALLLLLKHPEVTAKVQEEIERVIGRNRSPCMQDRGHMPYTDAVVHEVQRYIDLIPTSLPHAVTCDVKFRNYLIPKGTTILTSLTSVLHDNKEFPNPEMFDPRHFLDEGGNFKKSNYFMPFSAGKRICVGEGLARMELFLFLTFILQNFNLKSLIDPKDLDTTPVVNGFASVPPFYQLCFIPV
T5 sequence (P11940 whole entry, the tested form may be a part): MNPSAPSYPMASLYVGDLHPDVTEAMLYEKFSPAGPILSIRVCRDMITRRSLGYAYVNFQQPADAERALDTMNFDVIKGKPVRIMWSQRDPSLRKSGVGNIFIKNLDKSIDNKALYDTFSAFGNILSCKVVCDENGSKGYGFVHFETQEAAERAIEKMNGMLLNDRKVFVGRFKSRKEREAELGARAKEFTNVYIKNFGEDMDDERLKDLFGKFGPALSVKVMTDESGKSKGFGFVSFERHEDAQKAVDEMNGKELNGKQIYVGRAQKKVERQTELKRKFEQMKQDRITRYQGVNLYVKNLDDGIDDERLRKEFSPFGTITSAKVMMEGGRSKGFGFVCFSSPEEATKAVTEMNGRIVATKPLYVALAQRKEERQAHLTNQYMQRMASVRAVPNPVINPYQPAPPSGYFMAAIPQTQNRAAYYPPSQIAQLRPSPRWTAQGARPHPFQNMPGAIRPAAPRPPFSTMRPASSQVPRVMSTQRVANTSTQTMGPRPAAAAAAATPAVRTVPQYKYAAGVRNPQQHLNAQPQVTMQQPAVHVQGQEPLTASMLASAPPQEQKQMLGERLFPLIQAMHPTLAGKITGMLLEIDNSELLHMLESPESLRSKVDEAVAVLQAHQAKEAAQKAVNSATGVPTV

O=C(CCNC(=O)c1ccc(Br)o1)NCc1ccccn1
AC50 (Cytochrome P450 3A4 [1]): 14.1 µM (inconclusive)
AC50 (Cytochrome P450 1A2): 14.1 µM (inconclusive)
AC50 (Cytochrome P450 2C9 [2]): inconclusive
AC50 (Cytochrome P450 2C19): 17.8 µM (inconclusive)

O=C(O)CCN1C(=O)CC(N2C(=O)/C(=C/c3ccc(Cl)cc3)SC2=S)C1=O (stereo unspecified)
IC50 (Leucine aminopeptidase): 22.5 µM (active)

CCN(CC)CCO[C@H]1CC[C@@]2(C)C(=CC[C@@H]3[C@H]2CC[C@]2(C)C(=O)CC[C@H]32)C1
AC50 (Cytochrome P450 3A4 [3]): inconclusive

Cc1ccc(O)c(N=Nc2ccccc2)n1
EC50 [4]: < 0.701 µM (active)
EC50 [5]: 1.2 µM (active)

CC1(C)CC(N2CCC(=O)NC2=S)CC(C)(C)N1
EC50 [4]: > 112 µM (not active)
EC50 [5]: > 112 µM (not active)

O=C(NCc1cccs1)C1CCN(S(=O)(=O)c2cccc3nsnc23)CC1
AC50 (Cytochrome P450 1A2): 0.158 µM (inconclusive)
AC50 (Cytochrome P450 2C9 [2]): inconclusive
AC50 (Cytochrome P450 2D6): 6.31 µM (inconclusive)

O=C(OCC(=O)N1CCCC1)c1ccccc1OCc1ccccc1
IC50 (Leucine aminopeptidase): 4.38 µM (active)

O=C(NC1CCN(Cc2ccccc2)CC1)c1ccc(I)cc1
AC50 (Cytochrome P450 3A4 [3]): inconclusive
AC50 (Cytochrome P450 1A2): 39.8 µM (inconclusive)
AC50 (Cytochrome P450 2C9 [6]): 39.8 µM (inconclusive)

Cc1ccccc1-c1cc(NCCN2CCOCC2)ncn1
AC50 (Cytochrome P450 3A4 [3]): inconclusive
AC50 (Cytochrome P450 1A2): 31.6 µM (inconclusive)

CCC(=O)Nc1cccc(-c2nc3ccccc3c(=O)o2)c1
AC50 (Cytochrome P450 3A4 [1]): 28.2 µM (inconclusive)
AC50 (Cytochrome P450 2C9 [2]): inconclusive
AC50 (Cytochrome P450 2D6): 31.6 µM (inconclusive)
AC50 (Cytochrome P450 2C19): 39.8 µM (inconclusive)

Cc1c(Nc2nc3ccccc3nc2NS(=O)(=O)c2cccc(Cl)c2)c(=O)n(-c2ccccc2)n1C
IC50 (Leucine aminopeptidase): 21.3 µM (active)

Cc1ccccc1-n1c(=O)cc(N2CC(C)OC(C)C2)[nH]c1=O (stereo unspecified)
AC50 (Cytochrome P450 3A4 [3]): inconclusive

CC(C)c1ccc(-c2cc(C(=O)NN3CCN(C)CC3)c3ccccc3n2)cc1
EC50 (H4): 9.4 µM (active)
EC50 [7]: 3.59 µM (active)
EC50 [8]: 3.27 µM (active)
EC50 [4]: 5.93 µM (active)
EC50 [5]: 18.2 µM (active)

C[C@@]12CC[C@@H]3[C@@H](CC[C@H]4C[C@@H](O)CC[C@]43C)[C@H]1CC[C@@H]2c1cc(C(F)(F)F)[nH]n1
AC50 (Cytochrome P450 3A4 [3]): inconclusive
AC50 (Cytochrome P450 2C9 [6]): 7.94 µM (inconclusive)

Cn1c(=O)c2cc(S(=O)(=O)NCCC(=O)NCCc3ccc(Cl)cc3)ccc2n(C)c1=O
AC50 (Cytochrome P450 1A2): 0.0398 µM (inconclusive)
AC50 (Cytochrome P450 2C9 [2]): inconclusive

CO/N=C/c1ccc(N2CCN(C(=O)c3ccc(Cl)cc3Cl)CC2)c([N+](=O)[O-])c1
EC50 [9]: 20.3 µM (active)
AC50 (Cytochrome P450 3A4 [3]): inconclusive
EC50 [10]: 22.3 µM (active)

Oc1cccc(/C=N/Nc2nn3cnnc3c3ccccc23)c1
EC50 [4]: 18.8 µM (active)
EC50 [5]: 5.06 µM (active)

CSc1nc2ccccc2cc1/C=C(\C#N)c1ccccc1
AC50 (Cytochrome P450 3A4 [3]): inconclusive

Cc1cccc(C(=N)NOC(=O)c2ccccc2Cl)c1
EC50 [4]: 3.84 µM (active)
EC50 [5]: 1.96 µM (active)

C=CC[C@H](N)C(=O)O
AC50 (Cytochrome P450 3A4 [3]): inconclusive

CCS(=O)(=O)N1CCC[C@H]2CN3CCc4cc(OC)ccc4[C@@H]3C[C@@H]21
AC50 (Cytochrome P450 1A2): 31.6 µM (inconclusive)
AC50 (Cytochrome P450 2C9 [2]): inconclusive

Cc1ccc(N=C(S)c2ccc3ccccc3n2)c(C)c1
IC50 [11]: > 66 µM (inactive)
EC50 [12]: > 300 µM (not active)
EC50 [4]: > 112 µM (not active)
EC50 [13]: > 300 µM (not active)
EC50 [5]: > 112 µM (not active)
IC50 [14]: > 66 µM (inactive)
